The test system of data set [1] is CA-46 cells. The data set can be described thus: MTS single-dosage cell viability assay. As to conditions: CA-46, 250 nM. In kind it is cell-based. From the text:
(§1) Single-Dosage Cell Viability Assay in CA-46 and Raji Cells. CA-46 and Raji are both Myc-dependent and -overexpressing non-Hodgkin's lymphoma cell lines. Both cell lines overexpress Myc due to a translocation that inserts an IgH enhancer upstream to the Myc gene. Whereas CA-46's translocation eliminates the G-quadruplex-forming region in one allele, Raji's translocation preserves the G-quadruplex-forming regions in both alleles. Therefore, Raji would be more sensitive to G-quadruplex-mediated Myc inhibition than CA-46, which may be reflected in lower IC50 values for Raji than CA-46. To evaluate cell line selectivity, MTS single-dosage assays were conducted to compare the antiproliferative effects of 7-aza-8,9-methylenedioxyindenoisoquinolines on CA-46 and Raji cells at 250 nM drug concentration (FIG. 8). Average % viability values of CA-46 and Raji cells for each drug were presented in bar plots side-by-side.
(§2) MTS Cell Viability Single-dosage Assay. Drug solutions for the MTS single dosage assays were made from DMSO stocks by dilutions in 1×PBS. To set up treatments, drug solutions were plated in triplicates to a 96-well tissue culture plate and added with media containing CA46 or Raji 2000 cells/well. […] Cells were quantified the same way as in the IC50 assays. To obtain %-viability, A490 values were subtracted by blank, normalized to 100%-viability control, and averaged. […]

Data set [2] has as its system Raji cells. The data set can be described thus: MTS single-dosage cell viability assay. As to conditions: 250 nM. It is filed as cell-based.
Source text: as §1, §2

Data set [3] concerns DU-145 (Prostate). Conditions: Prostate DU-145; reference 20; read-out: Cytotoxicity GI50; cited from earlier work.
The subject of data set [4] is HCT-116 (Colon). As to conditions: Colon HCT-116; reference 20; read-out: Cytotoxicity GI50; cited from earlier work.
The conditions of data set [5]: dogs, same time points; cited from earlier work.
In data set [6] the test system is MCF7 (Breast). Conditions: reference 20, read-out: Cytotoxicity GI50; cited from earlier work.
For data set [7], the system named is SF-539 (CNS). Conditions: CNS SF-539; reference 20; read-out: Cytotoxicity GI50; cited from earlier work.
Data set [8] concerns NCI-60 cancer cell lines. As to conditions: NCI-60 panel; reference 20; read-out: MGM (average GI50 across NCI-60 panel); cited from earlier work.
Data set [9] concerns OVCAR-3 (Ovarian). As to conditions: Ovarian OVCAR-3; reference 20; read-out: Cytotoxicity GI50; cited from earlier work.
Data set [10] deals with UACC-62 (Melanoma). Conditions: Melanoma UACC-62; reference 20; read-out: Cytotoxicity GI50; cited from earlier work.
The conditions of data set [11]: male, mouse, microsomes, 1 μM.
The conditions of data set [12]: in vivo, iv, 20 mg/kg.
Procedure: Brain Penetration Studies. […] The concentrations were determined by LC-MS/MS with direct measurement of the plasma samples. The brain tissue was homogenized with water using a 3:1 ratio of water (mL) to brain (g) before determination of the concentrations (ng/mL) in the brain homogenates, and the homogenate values then were multiplied by a factor of 4 to obtain the brain concentrations (ng/g).
Data set [13] can be described thus: Metabolic stability in liver microsomes. As to conditions: human liver microsomes.
Data set [14] can be described thus: Pharmacokinetics IV and PO in male CD1 mice.
Data set [15] concerns MYC mRNA in MCF-7 breast cancer cells. The data set can be described thus: qRT-PCR of MYC mRNA. Conditions: MCF-7, 1.0 μM, 6 h. It is filed as cell-based. The protocol:
Quantitative Reverse Transcriptase PCR (qRT-PCR). MCF-7 cells were grown and treated in 12-well tissue culture plates until collection. Total RNA was extracted using TRIzol reagent (15596018, Life Technologies). Purified RNA was dissolved in DEPC water and quantified. 1 μg purified RNA per sample was converted to cDNA using qScript cDNA SuperMix (84034, Quantabio) according to manufacturer's instruction. Real-time PCR reagents were made for each sample by mixing 1 μL synthesized cDNA, 3 μL PCR-grade water, 5 μL SYBR Green reagent (A25742, Applied Biosystem), and 0.25 μL each primer for Myc and GAPDH. Reactions were set up in triplicate for each target of each sample. Real-time PCR was conducted in 96-well PCR plates with a QuantStudio 6 Flex Real-Time PCR System (Life Technologies). The cycling condition was 95° C. for 5 min, followed by 40 cycles at 95° C. for 15 s, 60° C. for 15 s, and 72° C. for 15 s. The relative Myc expression was calculated using the 2^−ΔΔCt method by normalizing against GAPDH as the endogenous control.
(In general: Quantitative PCR measures a nucleic acid by following its amplification.)

Where [16] appears, read: male, CD1, mouse, plasma, iv, 1 mg/kg.

Molecules are shown by their SMILES. Like-named read-outs stand apart in the source and are kept apart here.

Here are results for three molecules from patent US20240287089A1, “Preparation and Uses of 7-Azaindenoisoquinolines” (Purdue Research Foundation, priority 0001, published 2024).

`COc1cc2c3c(n(CCCN4CCOCC4)c(=O)c2cc1OC)-c1nc2c(cc1C3=O)OCO2` [G101, 2,3-Dimethoxy-6-(3-morpholinopropyl)-5H-[1,3]dioxolo[4″,5″:5′,6′]pyrido[3′,2′:4,5]cyclopenta[1,2-c]isoquinoline-5,12(6H)-dione]: the “growth inhibition (% viability)” value in data set [1] and in data set [2] was “did not show growth inhibition” in each case.

Usually GI50 stands for the concentration at which growth is held to half of that of the control. Turning to `COc1cc2c3c(n(CCCNCCO)c(=O)c2cc1OC)-c1cc2c(cc1C3=O)OCO2` [LMP744], the GI50 in data set [3] was < 10 nM; in data set [4], 100 nM; in data set [6], 790 nM; in data set [7] it was 40 nM; in [8] it was 110 nM; in data set [9], 350 nM. Also, the GI50 in data set [10] was 30 nM. For the same molecule, the “mean tumor concentration relative to plasma concentration” value in [5] is on record as “at least 100 times”.

For orientation: Cmax means the highest concentration seen after dosing. Usually Tmax stands for the time at which the peak concentration occurs. Broadly, the half-life is the time needed for the level to fall by half in the phase considered. Regarding `COc1cc2c3c(n(CCCNCCO)c(=O)c2cc1OC)-c1nc2c(cc1C3=O)OCO2` [G105, 6-(3-((2-Hydroxyethyl)amino)propyl)-2,3-dimethoxy-5H-[1,3]dioxolo[4″,5″:5′,6′]pyrido[3′,2′:4,5]cyclopenta[1,2-c]isoquinoline-5,12(6H)-dione], in data set [11], the “Scaled-up CLint” value was 14.10 mL/min/kg, the T1/2 stood at 7.1658 h and the “in vitro CLint” value worked out at 3.22 μL/min/mg protein. In data set [12] (male, CD1, mouse), this molecule showed an AUCInf of 2949 ng·h/mL, an AUClast of 2847 ng·h/mL, a C0 of 3904 ng/mL and a Cl_obs of 113 mL/min/kg. In data set [12] (male, CD1, mouse), the “MRTInf—obs” value is 4.12 h and the T1/2 was 6.18 h. In addition, the “Brain/Plasma Conc Ratio” value in data set [12] (male, CD1, mouse, 0.25 h) was determined as 0.42. Also, the “Brain/Plasma Conc Ratio” value in [12] (male, CD1, mouse, 0.5 h) stood at 0.44. In addition, the “Brain/Plasma Conc Ratio” value in data set [12] (male, CD1, mouse, 1 h) is reported as 0.73. The “Brain/Plasma Conc Ratio” value in [12] (male, CD1, mouse, 2 h) turned out to be 1.45. The “Brain/Plasma Conc Ratio” value in data set [12] (male, CD1, mouse, 4 h) is listed as 2.71. Also, the “Brain/Plasma Conc Ratio” value in data set [12] (male, CD1, mouse, 8 h) amounted to 10.2. The molecule also gave an AUClast in [12] (mouse) of 9698 ng·h/g. For the same molecule, in data set [13], the “Scaled-up CLint” value is 7.67 mL/min/kg and the “in vitro CLint” value stood at 6.12 μL/min/mg protein. Further, in data set [13] (1 μM), the T1/2 amounted to 3.7753 h. In data set [14] (IV 1 mg/kg, male CD1 mice), the AUCInf was determined as 155 ng·h/mL, the AUClast came to 151 ng·h/mL, the AUClast/D stood at 151 ng·h/mL and the “AUC—% Extrap—obs” value is listed as 2.61%. For the same molecule, in data set [14] (IV 1 mg/kg, male CD1 mice), the C0 is recorded as 177 ng/mL, the Cl_obs was determined as 107 mL/min/kg, the “MRTInf—obs” value is recorded as 1.49 h and the T1/2 was 1.84 h. For the same molecule, in [14] (PO 10 mg/kg, male CD1 mice), the AUCInf worked out at 28.8 ng·h/mL, the AUClast was found to be 18.0 ng·h/mL, the AUClast/D turned out to be 1.80 ng·h/mL and the “AUC—% Extrap—obs” value is reported as 37.3%. Besides, in data set [14] (PO 10 mg/kg, male CD1 mice), the Cmax is 3.50 ng/mL, the “F (fraction of the dose absorbed)” value stood at 1.19%, the “MRTInf—obs” value was determined as 7.86 h and the T1/2 is reported as 5.20 h. Besides, the Tmax in [14] (PO 10 mg/kg, male CD1 mice) came out at 0.500 h. In data set [14] (setting [16]), this molecule had a Vd of 9.62 L/kg and a half-life of 1.84 h. This molecule had a half-life in [14] (male, CD1, mouse, plasma, po, 10 mg/kg) of 5.2 h. For the same molecule, the “MYC mRNA level” value in data set [15] is reported as “significantly lowered MYC mRNA levels”.
